According to PubChem BioAssay (NCI):
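48-hour exposure; five concentrations; linearly interpolated endpoints. TGI: concentration producing complete growth inhibition.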

Assays:
Test in all cases: NCI tumour cell line growth inhibition, 48 h
[1] = tested on: EKVX NSCLC
[2] = tested on: T-47D breast
[3] = tested on: DU-145 prostate
[4] = tested on: MDA-MB-231 breast
[5] = tested on: HT29 colon
[6] = tested on: MDA-MB-435
[7] = tested on: NCI-H522 lung
[8] = tested on: UO-31 renal
[9] = tested on: COLO 205 colon
[10] = tested on: 786-0 renal
[11] = tested on: ACHN renal
[12] = tested on: TK-10 renal
[13] = tested on: SK-OV-3 ovarian
[14] = tested on: A498 renal
[15] = tested on: SF-268 CNS
[16] = tested on: U251 CNS
[17] = tested on: NCI-H460 lung
[18] = tested on: HOP-62 NSCLC
[19] = tested on: SF-295 CNS

SMILES: CC(=O)O[C@H]1CC[C@H]2[C@@H]3CCC4C(C)=NNC(=O)C4[C@H]3CC[C@]12C (some centres undefined)
- TGI [1]: > 100 µM
- TGI [2]: > 100 µM
- TGI [3]: > 100 µM
- TGI [4]: > 82.8 µM
- TGI [5]: > 100 µM
- TGI [6]: > 100 µM
- TGI [7]: > 86.7 µM
- TGI [8]: > 100 µM
- TGI [9]: > 100 µM
- TGI [10]: > 100 µM
- TGI [11]: > 100 µM
- TGI [12]: > 100 µM
- TGI [13]: > 100 µM
- TGI [14]: > 100 µM
- TGI [15]: > 100 µM
- TGI [16]: > 100 µM
- TGI [17]: > 100 µM
- TGI [18]: 57.6 µM
- TGI [19]: > 100 µM
